Reference: patent EP2848693A1, “Concatenation of halogenated alkenyl diphosphate derivatives” (LANXESS Deutschland GmbH, priority 2013, dated 2015)

Key:
Type in all cases: biochemical
[1] = molecular target: T1, Thermococcus kodakaraensis cis-Prenyltransferase (ThkCPT) (Thermococcus kodakarensis, UniProt Q5JGE1); experiment: MTP phosphate detection assay (diphosphate release, BIOMOL Green), substrate kinetics; conditions: elongation substrate varied, starter FPP 10 µM, room temperature
T1 construct: made in house; host or cells: E. coli
T1 sequence (Q5JGE1 1-264): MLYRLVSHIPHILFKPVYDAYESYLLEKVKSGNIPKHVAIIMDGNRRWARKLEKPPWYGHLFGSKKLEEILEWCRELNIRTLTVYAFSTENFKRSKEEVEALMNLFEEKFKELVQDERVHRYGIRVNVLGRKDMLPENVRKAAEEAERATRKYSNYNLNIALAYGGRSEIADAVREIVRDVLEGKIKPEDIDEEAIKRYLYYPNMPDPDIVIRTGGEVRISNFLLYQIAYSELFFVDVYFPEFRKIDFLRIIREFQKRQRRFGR
Protocol: (§1) Cis-Prenyltransferasen entlassen während der Reaktion Diphosphat nach jedem Kondensationsschritt. Dies ist der Ansatzpunkt, der gewählt wurde, um unabhängig von der Art des Produktes den Grundumsatz zu detektieren. […] Die Dreifachbestimmungen der Enzymreaktionen wurden mit 100 µL BIOMOL Green™ Detektionsreagenz gestoppt und nach weiteren 20 min in einem Mikrotiterplattenspektrophotometer bei 620 nm gemessen. Zur Kontrolle erfolgte für jede Substratkonzentration eine Messung mit denaturiertem Enzym zu den unterschiedlichen Zeitpunkten um Selbsthydrolyse der Substrate zu berücksichtigen. Zur Quantifizierung wurde eine Pi-Standardkurve in Doppelbestimmung mitgeführt. Die Verdünnung des KPi-Standards erfolgte in Assaypuffer, wurde mit 100 µL BIOMOL Green™ Detektionsreagenz nach Ablauf der Enzymreaktion in den Test-Wells detektiert und zeitgleich nach weiteren 20 min bei 620 nm gemessen. Eine lineare Beziehung zwischen A620 nm und Pi-Konzentration ermöglichte eine Quantifizierung zwischen 80 µM-0 µM Pi.
(§2) Die Bestimmung der FPP-Kinetiken der EcUPPS sowie der ThkCPT erfolgte unter analogen Bedingungen der Bestimmung von IPP. […] Die Enzymreaktion wurde nach 60 s, 120 s, 180 s, 300 s, 600 s, 900 s oder 1200 s durch Zugabe von 100 µL BIOMOL Green™ Detektionsreagenz gestoppt und wie oben beschrieben gemessen.
(§3) Die Assaybedingungen wurden wie in Beispiel 3 beschriebenen gewählt. […] Variation von 500 - 0 µM im Fall der Elongationssubstrate erfolgte konstant mit 10 µM FPP (jedes Homoallyldiphosphat möglich).
(§4) Zur Berechnung der Umsatzraten in nkat·mg^-1 wurde verwendet: ν0 = ((A620-ABlank)⋅1000)/(2⋅m⋅t⋅[E]) [formula] v0 Anfangsgeschwindigkeit der Diphosphathydrolyse (nkat·mg^-1) A620 Absorption bei 620 nm ABlank Absorption der Kontrolle bei 620 nm m Anstieg der Phosphatstandardkurve (µM^-1) t Dauer der Enzymreaktion (s) [E] Enzymkonzentration (mg·L^-1)
(§5) Die Auswertung erfolgte durch nicht-lineare Regression nach der Hill-Gleichung mit Sigma-Plot 11. […] Substratkonzentration (µM) h Hill-Koeffizient

[2] = molecular target: T2, E. coli Undecaprenyldiphosphatsynthase (EcUPPS) (Escherichia coli, UniProt P60472); experiment: as above; conditions: elongation substrate varied, starter FPP 10 µM
T2 construct: made in house; host or cells: E. coli
T2 sequence (P60472 1-253): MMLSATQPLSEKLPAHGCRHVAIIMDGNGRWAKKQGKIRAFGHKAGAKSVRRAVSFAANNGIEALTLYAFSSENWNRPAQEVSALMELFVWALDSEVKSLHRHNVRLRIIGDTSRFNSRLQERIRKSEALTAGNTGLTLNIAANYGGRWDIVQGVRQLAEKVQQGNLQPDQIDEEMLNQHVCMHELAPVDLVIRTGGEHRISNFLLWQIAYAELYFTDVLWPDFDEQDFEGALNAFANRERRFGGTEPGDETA
Protocol: as §1, §2, §3, §4, §5

[3] = molecular target: T3, EcUPPS (Escherichia coli, UniProt P60472); experiment: Product chain length by HPLC with fluorescent starter substrate 110; conditions: 10 µM EcUPPS, 110 as starter substrate, HPLC of hydrolysed products
T3 construct: made in house; host or cells: E. coli
Protocol: Zur Bestimmung der Produktkettenlängen wurden 500 µL Enzymassays in MS-Gläschen durchgeführt. […] Die Extraktion der Polyprenyldiphosphate erfolgte mit 500 µL 1-Butanol. Die Butanolphase wurde in ein neues Glas überführt und unter Stickstoffstrom von dem Lösungsmittel befreit. Die Hydrolyse der Diphosphate zum Polyprenol erfolgte durch Zugabe von 200 µL Hydrolysepuffer (20% Isopropanol, 4,4 Units/mL saure Phophatase aus Kartoffeln, 0,1 % Triton X-100, 50 mM Natriumacetat (pH 4,7)) und wurde über Nacht bei 37 °C inkubiert. Die Polyprenole wurden mit 500 µL nHexan extrahiert und zur weiteren DC- oder HPLC-Analyse vorbereitet. Für DC-Experimente und LC/ESI-MS-Analysen wurde die nHexan-Phase in ein neues Glas überführt, das Lösungsmittel abgedampft und die Produkte erneut in 100 µL nHexan resuspendiert um eine Aufkonzentrierung zu erreichen. Für HPLC-Analysen mit 110 ((2E,6E)-8-O-(N-methyl-2-aminobenzoyl)-3,7-dimethyl-2,6-octandien-1-diphosphat) als Startersubstrat wurde die nHexan-Phase 1:3 verdünnt in das HPLC-System mittels Autosampler injiziert.
Die HPLC-Analyse der Polyprenole erfolgte an einer Anlage von Merck HITACHI D-7000, wobei als stationäre Phase eine YMC-ODS AQ (150 x 4 mm, 5 µm; YMC Europe GmbH, Dinslaken) Säule verwendet wurde. Die Elution erfolgte mit 1 mL·min^-1 und die Detektion bei 210 nm mit einem UV-VIS Detektor: Merck HITACHI L-7420. […]

## C=C(Cl)CCOP(=O)(O)OP(=O)(O)O [Cl-BPP, 3-Chlor-3-Butenyldiphosphat]
[1]
  kcat: 0,0005 s^-1
[2]
  kcat: 0,0009 s^-1
[3]
  Kondensationsschritte / Elongationseinheiten: 2
